From paper PMC8705409, “Synthesis of sp^2-Iminosugar Selenoglycolipids as Multitarget Drug Candidates with Antiproliferative, Leishmanicidal and Anti-Inflammatory Properties” (Molecules, 2021)
Entries after “also recorded” stand apart in the source; their conditions may differ. Like-named read-outs stand apart in the source and are kept apart here.

Tests used:
[1] = tested on: human solid tumor cell lines A549, SW1573, HBL-100, T-47D, HeLa, WiDr; set-up: method as in PMID 28728108; settings: same assay; read-out: GI50 of reference agent in the same assay; cited from earlier work
[2] = tested on: A549 (lung) human solid tumor cell line; experiment: Antiproliferative SRB assay (HTS), A549; type: cell-based; settings: 48 h
Procedure: (§1) All reagents were used as purchased from commercial suppliers without further purification. The human solid tumor cell lines used in this study were: A549, SW1573 (lung), HBL-100, T-47D (breast), HeLa (cervix) and WiDr (colon). These cell lines were a kind gift from Prof. G.J. Peters (VU Medical Center, Amsterdam, The Netherlands).
(§2) Cells were inoculated onto 96-well microtiter plates in a volume of 100 μL per well at densities of 2500 (A549, HBL-100, HeLa, and SW1573) and 5000 (T-47D and WiDr) cells per well, based on their doubling times. Compounds were initially dissolved in DMSO at 400 times the desired final maximum test concentration. Control cells were exposed to an equivalent concentration of DMSO (0.25% v/v, negative control). Each agent was tested in triplicate at different dilutions in the range of 1–100 μM. The drug treatment started on day 1 after plating. Drug incubation times were 48 h, after which cells were precipitated with 25 μL ice-cold TCA (50% w/v) and fixed for 60 min at 4 °C. Then the SRB assay was performed. The optical density (OD) of each well was measured at 530 nm, using BioTek’s PowerWave XS Absorbance Microplate Reader. Values were corrected for background OD from wells only containing medium. The antiproliferative activity for each compound, expressed as GI50 values, was calculated according to NCI formulas.

[3] = tested on: SW1573 (lung) human solid tumor cell line; experiment: Antiproliferative SRB assay (HTS), SW1573; type: cell-based; settings: 48 h
Procedure: as §1, §2

[4] = tested on: HBL-100 (breast) human solid tumor cell line; experiment: Antiproliferative SRB assay (HTS), HBL-100; type: cell-based; settings: 48 h
Procedure: as §1, §2

[5] = tested on: T-47D (breast) human solid tumor cell line; experiment: Antiproliferative SRB assay (HTS), T-47D; type: cell-based; settings: T47D, 48 h
Procedure: as §1, §2

[6] = tested on: HeLa (cervix) human solid tumor cell line; experiment: Antiproliferative SRB assay (HTS), HeLa; type: cell-based; settings: 48 h
Procedure: as §1, §2

[7] = tested on: WiDr (colon) human solid tumor cell line; experiment: Antiproliferative SRB assay (HTS), WiDr; type: cell-based; settings: 48 h
Procedure: as §1, §2

[8] = tested on: human solid tumor cell lines A549, SW1573, HBL-100, T-47D, HeLa, WiDr; experiment: Antiproliferative SRB assay (HTS), whole panel of six cell lines; type: cell-based; settings: for GI50: Homo sapiens, range over the six tumor cell lines, read-out: GI50 against all the cell lines tested
Procedure: as §1, §2

[9] = tested on: intracellular amastigotes of Leishmania donovani HU3; experiment: Susceptibility of intracellular Leishmania amastigotes (luciferase) in THP-1 macrophages; type: cell-based; settings: L. donovani HU3 in macrophage-differentiated THP-1, 72 h, threshold 20 μM
Procedure: Macrophage-differentiated-THP-1 cells, which are considered a suitable model for human macrophages, were plated at a density of 3 × 10^4 macrophages/well in 96-well white polystyrene microplates, and were infected at a macrophage/parasite ratio of 1:10 with L. donovani HU3 promastigotes. 24 h after infection at 35 °C and 5% CO2, extracellular parasites were removed by washing with serum-free medium. Infected cell cultures were then incubated at different compound concentrations in RPMI 1640 medium plus 10% iFBS at 37 °C with 5% CO2 for 72 h. To determine the susceptibility of L. donovani-LUC amastigotes, infected macrophages maintained in 96-well plates were lysed and then luminescence intensity was measured as indicative of the intracellular parasite growth, using the Luciferase Assay System Kit (Promega, Madison, WI, USA) according to the instructions of the supplier.

[10] = Cellular toxicity, MTT assay, THP-1; type: cell-based; settings: human, maximal concentration 200 µM, read-out: EC50 THP-1 Cell Line (cytotoxicity)
Procedure: (§3) Human myelomonocytic cell line THP-1 was grown at 37 °C and 5% CO2 in RPMI-1640 supplemented with 10% iFBS, 2 mM […], 100 U/mL penicillin and 100 μg/mL streptomycin. 3 × 10^4 cells/well in 96-well plates were differentiated to macrophages with 20 ng/mL of PMA treatment for 48 h followed by 24 h of culture in fresh medium. MRC5 cells were grown at 37 °C and 5% CO2 in DMEM complete media. 4000 cells/well in 96-well plates were incubated for 24 h at 37 °C and 5% CO2.
(§4) Cellular toxicity of all compounds was determined using the colorimetric MTT-based assay after incubation at 37 °C for 72 h in the presence of increasing concentrations of compounds (final maximal concentrations 200 µM). The results are expressed as EC50 values, as the concentration of the compound that reduce cell growth by 50% versus untreated control cells. Assays were performed in triplicate.

[11] = Cellular toxicity, MTT assay, MRC-5; type: cell-based; settings: human, maximal concentration 200 µM, read-out: EC50 MRC-5 Cell Line (cytotoxicity)
Procedure: as §3, §4

[12] = tested on: Bv.2 microglia cells; experiment: Cellular viability by crystal violet staining; type: cell-based, mouse; settings: Bv.2 cells, 24 h, different concentrations
Procedure: (§5) Mouse microglia Bv.2 cell line was supplied by Dr. M.L. Nieto (IBGM, Valladolid, Spain). Bv.2 cells were cultured at 37 °C in a humidified atmosphere with 5% CO2 in RPMI supplemented with 10% (v/v) heat-inactivated FBS, 1% (v/v) penicillin/streptomycin (Sigma) and 2 mM L-glutamine (Gibco, Carlsbad, CA, USA). Cells were grown up to 70% confluence and then washed twice with PBS and further cultured in serum-free medium and stimulated with LPS (200 ng/mL) with or without 14/10 (0.1–50 µM) for 24 h.
After cell treatments, the medium was discarded, and the remaining viable adherent cells were stained with crystal violet (0.2% w/v in 2% ethanol) for 20 min. After this time, plates were rinsed with tap water and allowed to dry, and 1% SDS was added to solubilize them. The absorbance of each plate was read spectrophotometrically at 560 nm.

[13] = tested on: nitrite production in Bv.2 microglial cells; experiment: Nitrite production in LPS-stimulated Bv.2 cells (Griess method); type: cell-based, mouse; settings: LPS 200 ng/mL, 24 h
Procedure: as §5
Nitrite levels were measured by using the Griess method. Briefly, nitrites turn into a pink compound in contact with an acid solution containing 1% sulphanilamide and 0.1% N-(1-naphthyl)ethylenediamine (NEDA), and can be quantified by a colorimetric method at 540 nm in a microplate reader (Versamax Tunable Microplate reader, Molecular Devices, Sunnyvaley, CA, USA).

[14] = tested on: iNOS expression in Bv.2 microglial cells; experiment: LPS-induced iNOS protein expression (Western blot); type: cell-based, mouse; settings: Bv.2 cells, LPS 200 ng/mL
Procedure: as §5
(§6) Bv.2 microglial cells were homogenized in lysis buffer containing 50 mM Tris-HCl, pH 7.4, 150 mM NaCl, 1 mM Na3VO4, 1 mM NaF, 1 mM EGTA, […] and 0.25% (w/v) sodium deoxycholate, supplemented with protease inhibitors (10 µg/mL leupeptin, 10 µg/mL aprotinin, and 100 µg/mL phenylmethylsulphonyl fluoride). All debris was removed by centrifugation at 14,000× g for 10 min at 4 °C and protein concentration was quantified using the Bio-Rad protein assay with BSA as a standard. Equivalent amounts of protein were resolved using denaturing sodium dodecyl sulphate-polyacrylamide gel electrophoresis (SDS-PAGE), followed by transfer to PVDF membranes (Bio-Rad). […]
(§7) Densitometry of the Western blots was performed using the ImageJ program. […] Data were analyzed by one-way ANOVA followed by Bonferroni t-test or by paired t-test when comparisons were among two groups. […]

[15] = tested on: arginase-1 expression in Bv.2 microglial cells; experiment: Arginase-1 levels (Western blot); type: cell-based, mouse; settings: Bv.2 cells, absence or presence of LPS 200 ng/mL; 10 at 10 μM, 14 at 50 μM
Procedure: as §5, §6, §7

[16] = THP-1 cells differentiated to macrophages with PMA

Compound | GI50 [1] [µM] | GI50 [2] [µM] | GI50 [3] [µM] | GI50 [4] [µM] | GI50 [5] [µM] | GI50 [6] [µM] | GI50 [7] [µM] | antiproliferative activity ([8]; panel of six tumor cell lines) | EC50 [9] [µM] | EC50 at 72 h [10] [µM] | EC50 at 72 h [11] [µM] | GI50 [8] [µM] | effect on cellular viability [12] | concentration at which nitrite production reached basal level [13] [µM] | effect on LPS-elicited enhancement of iNOS ([14]; compound at 10 μM) | induction of arginase-1 [15] | EC50 at 72 h [10, 16] [µM] | EC50 at 72 h ([11]; MRC-5 cells) [µM] | iNOS increase remaining after treatment (LPS alone 20-fold) ([14]; compound at 50 μM (five-fold higher concentration))
O=c1[nH]cc(F)c(=O)[nH]1 [Compound 5-FU, 5-fluorouracyl] | 5 to 50 |  |  |  |  |  |  |  |  |  |  |  |  |  |  |  |  |  | 
O=C1OC[C@@H]2[C@@H](O)[C@H](O)[C@@H](O)[C@@H]([Se]c3ccccc3)N12 [Compound 8, (1R)-1-Phenylseleno-5N,6O-oxomethylidenenojirimycin] |  | > 100 | > 100 | > 100 | > 100 | > 100 | > 100 | lack of activity; also recorded: inactive | > 20 | > 200 | 172 ± 27 |  |  |  |  |  |  |  | 
CCCCCCCC[Se][C@@H]1[C@H](O)[C@@H](O)[C@H](O)[C@H]2COC(=O)N21 [Compound 9, (1R)-1-Octylseleno-5N,6O-oxomethylidenenojirimycin] |  | 36 | > 100 | > 100 | 71 | 49 | 64 |  | > 20 | > 200 | 94.3 ± 4.95 | ≥ 36 |  |  |  |  |  |  | 
CCCCCCCCCCCC[Se][C@@H]1[C@H](O)[C@@H](O)[C@H](O)[C@H]2COC(=O)N21 [Compound 10, (1R)-1-Dodecylseleno-5N,6O-oxomethylidenenojirimycin] |  | 18 | 28 | 24 | 21 | 22 | 22 |  | 13.4 ± 1.63 | 84.25 ± 0.06 | 31.2 ± 1.61 | 16 to 28 | none of the concentrations used induced a negative effect | 10 | fully abrogated | direct effect on the induction of arginase-1 |  |  | 
CCCCCCCCN[C@@H]1[C@H](O)[C@@H](O)[C@H](O)[C@H]2COC(=O)N21 [Compound 11, (1S)-1-amino-N-octyl-5N,6O-oxomethylidene-1-deoxynojirimycin] |  | > 100 | > 100 | > 100 | > 100 | > 100 | > 100 |  | > 20 |  |  | > 100 |  |  |  |  | 209 ± 10.3 | 155 ± 5.3 | 
CCCCCCCCCCCCN[C@@H]1[C@H](O)[C@@H](O)[C@H](O)[C@H]2COC(=O)N21 [Compound 12, (1S)-1-Amino-N-dodecyl-5N,6O-oxomethylidene-1-deoxynojirimycin] |  | 18 | 30 | 23 | 23 | 23 | 22 |  | > 20 |  |  | 18 to 30 |  |  |  |  | 122 ± 13.3 | 49.6 ± 4.2 | 
CCCCCCCCS[C@@H]1[C@H](O)[C@@H](O)[C@H](O)[C@H]2COC(=O)N21 [Compound 13, (1R)-1-octylthio-5N,6O-oxomethylidenenojirimycin] |  | 58 | > 100 | 73 | 95 | 92 | 89 |  | > 20 |  |  | ≥ 36 |  |  |  |  | 122 ± 5.79 | 58.1 ± 12.6 | 
CCCCCCCCCCCCS[C@@H]1[C@H](O)[C@@H](O)[C@H](O)[C@H]2COC(=O)N21 [Compound 14, (1R)-1-dodecylthio-5N,6O-oxomethylidenenojirimycin] |  | 16 | 18 | 17 | 18 | 17 | 18 |  | > 20 |  |  | 16 to 28 | none of the concentrations used induced a negative effect | 50 |  | did not induce arginase-1 expression | 70.5 ± 3.75 | 43.1 ± 9.83 | about 8 fold
CCCCCCCCCCCCCCCCOP(=O)([O-])OCC[N+](C)(C)C [Miltefosine, reference compound] |  |  |  |  |  |  |  |  | 0.44 ± 0.08 |  |  |  |  |  |  |  | 26.9 ± 3.08 | 57.6 ± 6.38 | 
